Assays:
[1] = biological target: T1, recombinant N-terminal MLH1 (residues 15-340) (Homo sapiens, UniProt P40692); experiment: Fluorescence Polarisation Assay for MLH1; assay type: binding; conditions: fluorescence polarisation probe displacement; 100 nM N-terminal MLH1, 5 nM probe compound
T1 construct: recombinant N-terminal MLH1 (residues 15-340)
T1 sequence (P40692 15-340): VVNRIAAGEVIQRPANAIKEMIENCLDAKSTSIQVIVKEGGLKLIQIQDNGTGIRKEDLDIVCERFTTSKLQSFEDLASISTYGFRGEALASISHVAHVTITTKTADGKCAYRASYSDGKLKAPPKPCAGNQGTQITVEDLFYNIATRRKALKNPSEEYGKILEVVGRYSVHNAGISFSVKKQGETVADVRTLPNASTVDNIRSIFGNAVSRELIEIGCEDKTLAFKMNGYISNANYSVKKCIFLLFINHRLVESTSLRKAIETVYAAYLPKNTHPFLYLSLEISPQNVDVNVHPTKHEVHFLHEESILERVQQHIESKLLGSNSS
Summary of the method: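 FP displacement assay: 100 nM MLH1 (residues 15-340) preincubated 30 min at room temperature with compound in 25 mM HEPES pH 7.5, 250 mM NaCl, 10 mM MgCl2, 0.01% Triton X-100, 5 mM DTT, then 5 nM rhodamine-labelled probe added and read immediately. Data normalised to no-inhibitor and no-enzyme controls.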

[2] = biological target: T2, recombinant N-terminal PMS2 (residues 1-365) (Homo sapiens, UniProt P54278); experiment: Fluorescence Polarisation Assay for PMS2; assay type: binding; conditions: fluorescence polarisation probe displacement; 10 nM N-terminal PMS2, 5 nM probe compound; read-out: PMS2 IC50
T2 construct: recombinant N-terminal PMS2 (residues 1-365)
T2 sequence (P54278 1-365): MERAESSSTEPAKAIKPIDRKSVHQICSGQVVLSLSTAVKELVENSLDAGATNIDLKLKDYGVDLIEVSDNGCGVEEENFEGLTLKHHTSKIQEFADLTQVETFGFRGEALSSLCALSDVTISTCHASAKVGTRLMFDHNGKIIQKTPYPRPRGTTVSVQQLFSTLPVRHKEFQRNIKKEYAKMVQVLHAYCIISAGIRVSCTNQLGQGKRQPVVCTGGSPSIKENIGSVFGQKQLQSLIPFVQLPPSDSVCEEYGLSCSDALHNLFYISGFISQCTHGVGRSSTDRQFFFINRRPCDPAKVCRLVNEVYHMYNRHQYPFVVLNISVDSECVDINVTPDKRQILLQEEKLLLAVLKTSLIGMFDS
Summary of the method: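 Competition fluorescence polarisation with 10 nM N-terminal PMS2 and 5 nM fluorescent probe (final), read after 1 h at room temperature following 30 min compound pre-incubation. Data normalised to no-inhibitor and no-enzyme controls; single-point screening or serial dilutions for potency.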

Work on `CN(C)C(=O)c1cc2c(c(N[C@H]3CCOC3)c1)CN(C(=O)c1c(O)cc(O)cc1OCc1ccccc1)CC2` [Example 130, (S)-2-(2-(Benzyloxy)-4,6-dihydroxybenzoyl)-N,N-dimethyl-8-((tetrahydrofuran-3-yl)amino)-1,2,3,4-tetrahydroisoquinoline-6-carboxamide] yielded an IC50 [1] of under 1000 nM and an IC50 [2] of under 1000 nM.

For `CN(C)CCOc1cc2c(c(N[C@@H]3CCOC3)c1)CN(C(=O)c1c(O)cc(O)cc1OCc1ccccc1)CC2` [Example 131, (R)-(2-(Benzyloxy)-4,6-dihydroxyphenyl)(6-(2-(dimethylamino)ethoxy)-8-((tetrahydrofuran-3-yl)amino)-3,4-dihydroisoquinolin-2(1H)-yl)methanone], the IC50 [1] was under 1000 nM and the IC50 [2] was 1000 to 10000 nM.

Molecule `CN(C)CCOc1cc2c(c(N[C@H]3CCOC3)c1)CN(C(=O)c1c(O)cc(O)cc1OCc1ccccc1)CC2` [Example 132, (S)-(2-(Benzyloxy)-4,6-dihydroxyphenyl)(6-(2-(dimethylamino)ethoxy)-8-((tetrahydrofuran-3-yl)amino)-3,4-dihydroisoquinolin-2(1H)-yl)methanone] has an IC50 [1] of under 1000 nM and an IC50 [2] of under 1000 nM.

For `Cn1ccc(Nc2cccc3c2CN(C(=O)c2c(O)cc(O)cc2OCc2ccccc2)CC3)cc1=O` [Example 133, 4-((2-(2-(Benzyloxy)-4,6-dihydroxybenzoyl)-1,2,3,4-tetrahydro-isoquinolin-8-yl)amino)-1-methylpyridin-2(1H)-one], the IC50 [1] was 1000 to 10000 nM and the IC50 [2] was 1000 to 10000 nM.

`O=C(c1c(O)cc(O)cc1OCc1ccccc1)N1CCc2cccc(Nc3ccc(=O)[nH]c3)c2C1` [Example 134, 5-((2-(2-(Benzyloxy)-4,6-dihydroxybenzoyl)-1,2,3,4-tetrahydroisoquinolin-8-yl)amino)pyridin-2(1H)-one] gave an IC50 [1] of under 1000 nM and an IC50 [2] of over 10000 nM.

`Cn1cc(Nc2cccc3c2CN(C(=O)c2c(O)cc(O)cc2OCc2ccccc2)CC3)ccc1=O` [Example 135, 5-((2-(2-(Benzyloxy)-4,6-dihydroxybenzoyl)-1,2,3,4-tetrahydroisoquinolin-8-yl)amino)-1-methylpyridin-2(1H)-one] showed an IC50 [1] of under 1000 nM and an IC50 [2] of 1000 to 10000 nM.

Work on `CN1C[C@H](Nc2cccc3c2CN(C(=O)c2c(O)cc(O)cc2OCc2ccccc2)C3)CC1=O` [Example 136, (R)-4-((2-(2-(Benzyloxy)-4,6-dihydroxybenzoyl)isoindolin-4-yl)amino)-1-methylpyrrolidin-2-one] yielded an IC50 [1] of under 1000 nM and an IC50 [2] of under 1000 nM.

`CN1C[C@@H](Nc2cccc3c2CN(C(=O)c2c(O)cc(O)cc2OCc2ccccc2)C3)CC1=O` [Example 137, (S)-4-((2-(2-(Benzyloxy)-4,6-dihydroxybenzoyl)isoindolin-4-yl)amino)-1-methylpyrrolidin-2-one] was tested, and the IC50 [1] was under 1000 nM and the IC50 [2] was under 1000 nM.

`CN1CCC(Oc2cc3c(c(N[C@@H]4CCOC4)c2)CN(C(=O)c2c(O)cc(O)cc2OCc2ccccc2)CC3)CC1` [Example 138, (R)-(2-(Benzyloxy)-4,6-dihydroxyphenyl)(6-((1-methylpiperidin-4-yl)oxy)-8-((tetrahydrofuran-3-yl)amino)-3,4-dihydroisoquinolin-2(1H)-yl)methanone] gave an IC50 [1] of under 1000 nM and an IC50 [2] of 1000 to 10000 nM.

`CN1CCC(Oc2cc3c(c(N[C@H]4CCOC4)c2)CN(C(=O)c2c(O)cc(O)cc2OCc2ccccc2)CC3)CC1` [Example 139, (S)-(2-(Benzyloxy)-4,6-dihydroxyphenyl)(6-((1-methylpiperidin-4-yl)oxy)-8-((tetrahydrofuran-3-yl)amino)-3,4-dihydroisoquinolin-2(1H)-yl)methanone] gave an IC50 [1] of under 1000 nM and an IC50 [2] of under 1000 nM.

`O=C(c1c(O)cc(O)cc1OCC1CCCCC1)N1CCc2cccc(N[C@H]3CCOC3)c2C1` [Example 140, (S)-(2-(Cyclohexylmethoxy)-4,6-dihydroxyphenyl)(8-((tetrahydrofuran-3-yl)amino)-3,4-dihydroisoquinolin-2(1H)-yl)methanone] gave an IC50 [1] of 1000 to 10000 nM and an IC50 [2] of under 1000 nM.

`COCCOc1cc2c(c(N[C@@H]3CCOC3)c1)CN(C(=O)c1c(O)cc(O)cc1OCC1CC1)CC2` [Example 141, (R)-(2-(Cyclopropylmethoxy)-4,6-dihydroxyphenyl)(6-(2-methoxyethoxy)-8-((tetrahydrofuran-3-yl)amino)-3,4-dihydroisoquinolin-2(1H)-yl)methanone] showed an IC50 [1] of 1000 to 10000 nM and an IC50 [2] of over 10000 nM.

With `COCCOc1cc2c(c(N[C@@H]3CCOC3)c1)CN(C(=O)c1c(O)cc(O)cc1OCc1ccccn1)CC2` [Example 142, (R)-(2,4-Dihydroxy-6-(pyridin-2-ylmethoxy)phenyl)(6-(2-methoxyethoxy)-8-((tetrahydrofuran-3-yl)amino)-3,4-dihydroisoquinolin-2(1H)-yl)methanone] the IC50 [1] was under 1000 nM and the IC50 [2] was over 10000 nM.

With `CN(c1cccc2c1CN(C(=O)c1c(O)cc(O)cc1OCc1ccccc1)CC2)C1CCOC1` (centres unmarked) [Example 143, (2-(Benzyloxy)-4,6-dihydroxyphenyl)(8-(methyl(tetrahydrofuran-3-yl)amino)-3,4-dihydroisoquinolin-2(1H)-yl)methanone] the IC50 [1] was over 10000 nM and the IC50 [2] was over 10000 nM.

For `O=C(c1c(O)cc(O)cc1OCc1ccccc1)N1Cc2ccc(CNC3COC3)cc2C1` [Example 144, 2-(Benzyloxy)-4,6-dihydroxyphenyl-(5-((oxetan-3-ylamino)methyl)isoindolin-2-yl)methanone], the IC50 [1] was under 1000 nM and the IC50 [2] was under 1000 nM.

`O=C(c1c(O)cc(O)cc1OCc1ccccc1)N1Cc2ccc(CNC3CCOC3)cc2C1` (centres unmarked) [Example 145, (2-(Benzyloxy)-4,6-dihydroxyphenyl)(5-(((tetrahydrofuran-3-yl)amino)methyl)isoindolin-2-yl)methanone] gave an IC50 [1] of under 1000 nM and an IC50 [2] of under 1000 nM.

`CC(=O)N1CC(Nc2cccc3c2CN(C(=O)c2c(O)cc(O)cc2OCc2ccccc2)CC3)C1` [Example 146, 1-(3-((2-(2-(Benzyloxy)-4,6-dihydroxybenzoyl)-1,2,3,4-tetrahydroisoquinolin-8-yl)amino)azetidin-1-yl)ethan-1-one] showed an IC50 [1] of under 1000 nM and an IC50 [2] of 1000 to 10000 nM.

In the case of `O=C(c1c(O)cc(O)cc1OCc1ccccc1)N1CCc2cccc(NC3CCS(=O)(=O)C3)c2C1` (centres unmarked) [Example 147, (2-(Benzyloxy)-4,6-dihydroxyphenyl)(8-((1,1-dioxidotetrahydrothiophen-3-yl)amino)-3,4-dihydroisoquinolin-2(1H)-yl)methanone], the IC50 [1] is reported as under 1000 nM and the IC50 [2] is reported as 1000 to 10000 nM.

`COC1COCC1Nc1cccc2c1CN(C(=O)c1c(O)cc(O)cc1OCc1ccccc1)CC2` (centres unmarked) [Example 148, (2-(Benzyloxy)-4,6-dihydroxyphenyl)(8-((4-methoxytetrahydrofuran-3-yl)amino)-3,4-dihydroisoquinolin-2(1H)-yl)methanone] showed an IC50 [1] of 1000 to 10000 nM and an IC50 [2] of over 10000 nM.

In the case of `COCOc1cc(OCOC)c(C(=O)N2CCc3cccc(N(C)C4CN(C(C)=O)C4)c3C2)c(OCc2ccccc2)c1` [Example 149, 1-(3-((2-(2-(Benzyloxy)-4,6-bis(methoxymethoxy)benzoyl)-1,2,3,4-tetrahydroisoquinolin-8-yl)(methyl)amino)azetidin-1-yl)ethan-1-one], the IC50 [1] is reported as 1000 to 10000 nM and the IC50 [2] is reported as over 10000 nM.

Molecule `COCCCC(=O)N1CC[C@H](N(C)c2cccc3c2CN(C(=O)c2c(O)cc(O)cc2OCc2ccccc2)CC3)C1` [Example 150, (S)-1-(3-((2-(2-(Benzyloxy)-4,6-dihydroxybenzoyl)-1,2,3,4-tetrahydroisoquinolin-8-yl) (methyl)amino)pyrrolidin-1-yl)-4-methoxybutan-1-one] has an IC50 [1] of 1000 to 10000 nM and an IC50 [2] of over 10000 nM.

For `COCCCC(=O)N1CC[C@H](Nc2cccc3c2CN(C(=O)c2c(O)cc(O)cc2OCc2ccccc2)CC3)C1` [Example 151, (S)-1-(3-((2-(2-(Benzyloxy)-4,6-dihydroxybenzoyl)-1,2,3,4-tetrahydroisoquinolin-8-yl)amino)pyrrolidin-1-yl)-4-methoxybutan-1-one], the IC50 [1] was under 1000 nM and the IC50 [2] was over 10000 nM.
